Reference: patent US7462600B2, “Macrolides” (Pfizer Inc, priority 2004, dated 2008)
Converted amounts (≈) assume the structure as drawn. Like-named read-outs stand apart in the source and are kept apart here.

What was measured:
Type in all cases: cell-based
[1] = system: Streptococcus pyogenes 1079; assay: MIC, microtiter broth dilution (NCCLS M100-S14), S. pyogenes 1079 (ermB)
Outline: (§1)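 Compounds were first dissolved in DMSO (40 mg/ml stock), then tested by broth dilution in microtiter trays. MICs were interpreted using the 14th Informational Supplement (M100-S14) criteria.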

[2] = system: Streptococcus pneumoniae 1016; assay: MIC, microtiter broth dilution (NCCLS M100-S14), S. pneumoniae 1016 (susceptible)
Outline: as §1

[3] = system: Streptococcus pneumoniae 1095; settings: microtiter broth dilution
Outline: as §1

[4] = system: Streptococcus pneumoniae 1175; settings: microtiter broth dilution
Outline: as §1

[5] = system: Haemophilus influenzae 1218; assay: MIC, microtiter broth dilution (NCCLS M100-S14), H. influenzae 1218 (susceptible)
Outline: as §1

[6] = S. pneumoniae 1016 (susceptible)
[7] = H. influenzae 1218 (susceptible)

| SMILES | MIC S. pyogenes 1079 ([1]; S. pyogenes 1079 (ermB)) | MIC S. pneumo. 1016 [2, 6] | MIC S. pneumo. 1095 ([3]; S. pneumoniae 1095 (ermB)) | MIC S. pneumo. 1175 ([4]; S. pneumoniae 1175 (mefA)) | MIC H. influenzae 1218 [5, 7] | MIC S. pyogenes 1079 ([1]; Streptococcus pyogenes 1079) | MIC S. pneumo. 1016 ([2]; Streptococcus pneumoniae 1016) | MIC S. pneumo. 1095 ([3]; Streptococcus pneumoniae 1095) | MIC S. pneumo. 1175 ([4]; Streptococcus pneumoniae 1175) | MIC H. influenzae 1218 ([5]; Haemophilus influenzae 1218) |
| --- | --- | --- | --- | --- | --- | --- | --- | --- | --- | --- |
| CCC1OC(=O)C(C)C(=O)C(C)C(OC2OC(C)CC(N(C)C)C2O)C(C)(OC)CC(C)C(=O)C(C)C2N(CC3CCCN3Cc3ccc(OC)nc3)C(=O)OC12C (stereo not drawn) [12.03] | >64.00 µg/mL | <0.06 µg/mL | >64.00 µg/mL | 0.5 µg/mL (≈ 0.612 µM) | 4 µg/mL (≈ 4.9 µM) | – | – | – | – | – |
| CCC1OC(=O)C(C)C(=O)C(C)C(OC2OC(C)CC(N(C)C)C2O)C(C)(OC)CC(C)C(=O)C(C)C2N(C3CN(S(=O)(=O)c4ccc(-c5ccn[nH]5)cc4)C3)C(=O)OC12C (stereo not drawn) [Example 3.39, 3-descladinosyl-11,12-dideoxy-6-O-methyl-3-oxo-12,11-(oxycarbonyl-(1-(4-(1H-pyrazol-5-yl)benzenesulfonyl)-azetidin-3-yl)-imino)-erythromycin A] | – | – | – | – | – | 0.25 µg/mL (≈ 0.286 µM) | <0.06 µg/mL | <0.06 µg/mL | <0.06 µg/mL | 0.5 µg/mL (≈ 0.572 µM) |
| CCC1OC(=O)C(C)C(=O)C(C)C(OC2OC(C)CC(N(C)C)C2O)C(C)(OC)CC(C)C(=O)C(C)C2N(CC3CN(Cc4cnn(-c5cccc(F)c5)c4)C3)C(=O)OC12C (stereo not drawn) [4.21] | – | – | – | – | – | 64 µg/mL (≈ 74.8 µM) | <0.06 µg/mL | 2 µg/mL (≈ 2.34 µM) | <0.06 µg/mL | 0.5 µg/mL (≈ 0.584 µM) |
| CC[C@H]1OC(=O)[C@H](C)C(=O)[C@H](C)[C@@H](O[C@@H]2O[C@H](C)C[C@H](N(C)C)[C@H]2O)[C@](C)(OC)C[C@@H](C)C(=O)[C@H](C)[C@H]2N(CC3(O)CN(C(=O)c4ccc(-n5cccn5)nc4)C3)C(=O)O[C@]12C.O=CO [7.31] | >64.00 µg/mL | <0.06 µg/mL | 4 µg/mL | 0.12 µg/mL | 8 µg/mL | – | – | – | – | – |
| CCC1OC(=O)C(C)C(=O)C(C)C(OC2OC(C)CC(N(C)C)C2O)C(C)(OC)CC(C)C(=O)C(C)C2N(CC3CN(C(=O)c4ccc5ncccc5c4)C3)C(=O)OC12C (stereo not drawn) [4.33] | – | – | – | – | – | 64 µg/mL (≈ 76.5 µM) | <0.06 µg/mL | 1 µg/mL (≈ 1.19 µM) | 0.25 µg/mL (≈ 0.299 µM) | 1 µg/mL (≈ 1.19 µM) |
| CCC1OC(=O)C(C)C(=O)C(C)C(OC2OC(C)CC(N(C)C)C2O)C(C)(OC)CC(C)C(=O)C(C)C2N(CC3(O)CN(C(=O)c4ccc5ncccc5c4)C3)C(=O)OC12C (stereo not drawn) [7.05] | >64.00 µg/mL | <0.06 µg/mL | 2 µg/mL (≈ 2.34 µM) | 1 µg/mL (≈ 1.17 µM) | 1 µg/mL (≈ 1.17 µM) | – | – | – | – | – |
| CCC1OC(=O)C(C)C(=O)C(C)C(OC2OC(C)CC(N(C)C)C2O)C(C)(OC)CC(C)C(=O)C(C)C2N(C3CN(Cc4cccc5ncoc45)C3)C(=O)OC12C (stereo not drawn) [Example 1.13, (benzooxazol-7-yl)methyl] | – | – | – | – | – | 64 µg/mL (≈ 80.1 µM) | <0.06 µg/mL | 0.12 µg/mL (≈ 0.15 µM) | 1 µg/mL (≈ 1.25 µM) | 0.25 µg/mL (≈ 0.313 µM) |
| CCC1OC(=O)C(C)C(=O)C(C)C(OC2OC(C)CC(N(C)C)C2O)C(C)(OC)CC(C)C(=O)C(C)C2N(CC3CCCN3C(=O)c3ccc4cccnc4c3)C(=O)OC12C.O=CO (stereo not drawn) [10.15] | >64.00 µg/mL | <0.06 µg/mL | <0.06 µg/mL | 0.25 µg/mL | 2 µg/mL | – | – | – | – | – |
| CCC1OC(=O)C(C)C(=O)C(C)C(OC2OC(C)CC(N(C)C)C2O)C(C)(OC)CC(C)C(=O)C(C)C2N(C3CN(S(=O)(=O)c4ccc(-c5n[nH]c(=O)[nH]c5=O)cc4)C3)C(=O)OC12C (stereo not drawn) [Example 3.20, 3-descladinosyl-11,12-dideoxy-6-O-methyl-3-oxo-12,11-(oxycarbonyl-(1-(4-(2,3,4,5-tetrahydro-3,5-dioxo-1,2,4-triazin-6-yl)benzenesulfonyl)-azetidin-3-yl)-imino)-erythromycin A] | – | – | – | – | – | 8 µg/mL (≈ 8.7 µM) | <0.06 µg/mL | <0.06 µg/mL | 2 µg/mL (≈ 2.18 µM) | 0.5 µg/mL (≈ 0.544 µM) |
| CC[C@H]1OC(=O)[C@H](C)[C@@H](OC(=O)N2CCCC2)[C@H](C)[C@@H](O[C@@H]2O[C@H](C)C[C@H](N(C)C)[C@H]2O)[C@](C)(OC)C[C@@H](C)C(=O)[C@H](C)[C@H]2N(CC3CN(Cc4cccc5cccnc45)C3)C(=O)O[C@]12C [Example 5.08, 2-R^2: (quinolin-8-yl)methyl; R^#: pyrrolidin-1-yl] | – | – | – | – | – | 16 µg/mL (≈ 17.4 µM) | <0.06 µg/mL | 0.25 µg/mL (≈ 0.271 µM) | <0.06 µg/mL | 2 µg/mL (≈ 2.17 µM) |
| CCC1OC(=O)C(C)C(=O)C(C)C(OC2OC(C)CC(N(C)C)C2O)C(C)(OC)CC(C)C(=O)C(C)C2N(C3CN(S(=O)(=O)c4ccc(-n5nc(C)c(=O)[nH]c5=O)cc4)C3)C(=O)OC12C (stereo not drawn) [Example 3.14, 4-(4,5-dihydro-6-methyl-3,5-dioxo-1,2,4-triazin-2(3H)-yl)benzenesulfonyl] | – | – | – | – | – | >64.00 µg/mL | <0.06 µg/mL | 1 µg/mL (≈ 1.07 µM) | 1 µg/mL (≈ 1.07 µM) | 1 µg/mL (≈ 1.07 µM) |
| CCC1OC(=O)C(C)C(=O)C(C)C(OC2OC(C)CC(N(C)C)C2O)C(C)(OC)CC(C)C(=O)C(C)C2N(C3CCN(S(=O)(=O)c4cccc5cnccc45)C3)C(=O)OC12C (stereo not drawn) [Example 9.08, isoquinoline-5-sulfonyl] | 16 µg/mL (≈ 18.3 µM) | <0.06 µg/mL | 4 µg/mL (≈ 4.58 µM) | 0.12 µg/mL (≈ 0.137 µM) | 0.25 µg/mL (≈ 0.286 µM) | – | – | – | – | – |
| CCC1OC(=O)C(C)C(=O)C(C)C(OC2OC(C)CC(N(C)C)C2O)C(C)(OC)CC(C)C(=O)C(C)C2N(C3CN(S(=O)(=O)c4ccc(-c5cnco5)cc4)C3)C(=O)OC12C (stereo not drawn) [Example 3.13, 3-descladinosyl-11,12-dideoxy-6-O-methyl-3-oxo-12,11-(oxycarbonyl-(1-(4-(oxazol-5-yl)-benzenesulfonyl)-azetidin-3-yl)-imino)-erythromycin A] | – | – | – | – | – | 4 µg/mL (≈ 4.57 µM) | <0.06 µg/mL | 0.12 µg/mL (≈ 0.137 µM) | <0.06 µg/mL | 0.25 µg/mL (≈ 0.286 µM) |
| CCC1OC(=O)C(C)C(=O)C(C)C(OC2OC(C)CC(N(C)C)C2O)C(C)(OC)CC(C)C(=O)C(C)C2N(CC3CCCN3C(=O)c3nc4cccnc4[nH]3)C(=O)OC12C (stereo not drawn) [10.25] | >64.00 µg/mL | <0.06 µg/mL | <0.06 µg/mL | 0.5 µg/mL (≈ 0.595 µM) | 4 µg/mL (≈ 4.76 µM) | – | – | – | – | – |
| CCC1OC(=O)C(C)C(=O)C(C)C(OC2OC(C)CC(N(C)C)C2O)C(C)(OC)CC(C)C(=O)C(C)C2N(CC3CCN(Cc4ccc(OC)nc4)CC3)C(=O)OC12C (stereo not drawn) [15.04] | >64.00 µg/mL | <0.06 µg/mL | >64.00 µg/mL | 0.5 µg/mL (≈ 0.602 µM) | 16 µg/mL (≈ 19.3 µM) | – | – | – | – | – |
| CC[C@H]1OC(=O)[C@H](C)C(=O)[C@H](C)[C@@H](O[C@@H]2O[C@H](C)C[C@H](N(C)C)[C@H]2O)[C@](C)(OC)C[C@@H](C)C(=O)[C@H](C)[C@H]2N(CC3(C)CN(Cc4cnc5ccccc5n4)C3)C(=O)O[C@]12C [6.07] | – | – | – | – | – | >64.00 µg/mL | <0.06 µg/mL | 1 µg/mL (≈ 1.19 µM) | 0.5 µg/mL (≈ 0.597 µM) | 4 µg/mL (≈ 4.77 µM) |
| CCOc1ccc(S(=O)(=O)N2CC(N3C(=O)OC4(C)C(CC)OC(=O)C(C)C(=O)C(C)C(OC5OC(C)CC(N(C)C)C5O)C(C)(OC)CC(C)C(=O)C(C)C34)C2)c2cccnc12 (stereo not drawn) [Example 3.102, 3-descladinosyl-11,12-dideoxy-6-O-methyl-3-oxo-12,11-(oxycarbonyl-(1-(8-ethoxyquinoline-5-sulfonyl)-azetidin-3-yl)-imino)erythromycin A] | – | – | – | – | – | <0.063 µg/mL | <0.063 µg/mL | <0.063 µg/mL | <0.063 µg/mL | 1 µg/mL (≈ 1.11 µM) |
| CCC1OC(=O)C(C)C(=O)C(C)C(OC2OC(C)CC(N(C)C)C2O)C(C)(OC)CC(C)C(=O)C(C)C2N(C3CN(Cc4cn[nH]c4)C3)C(=O)OC12C (stereo not drawn) [Example 1.19, (1H-pyrazol-4-yl)methyl] | – | – | – | – | – | >64.00 µg/mL | <0.06 µg/mL | 0.12 µg/mL (≈ 0.16 µM) | 4 µg/mL (≈ 5.35 µM) | 0.5 µg/mL (≈ 0.669 µM) |
| CCC1OC(=O)C(C)C(=O)C(C)C(OC2OC(C)CC(N(C)C)C2O)C(C)(OC)CC(C)C(=O)C(C)C2N(CC3CCCN3S(=O)(=O)c3cccc4cccnc34)C(=O)OC12C (stereo not drawn) [10.47] | 64 µg/mL (≈ 72.1 µM) | <0.06 µg/mL | 0.12 µg/mL (≈ 0.135 µM) | <0.06 µg/mL | 2 µg/mL (≈ 2.25 µM) | – | – | – | – | – |
| CCC1OC(=O)C(C)C(=O)C(C)C(OC2OC(C)CC(N(C)C)C2O)C(C)(OC)CC(C)C(=O)C(C)C2N(C3CN(S(=O)(=O)c4ccc(N5CCOCC5)c(F)c4)C3)C(=O)OC12C (stereo not drawn) [Example 3.46, 3-fluoro-4-morpholinobenzenesulfonyl] | – | – | – | – | – | 32 µg/mL (≈ 35.1 µM) | <0.06 µg/mL | 0.5 µg/mL (≈ 0.549 µM) | <0.06 µg/mL | 2 µg/mL (≈ 2.2 µM) |
| CCC1OC(=O)C(C)C(=O)C(C)C(OC2OC(C)CC(N(C)C)C2O)C(C)(OC)CC(C)C(=O)C(C)C2N(CC3CCCN3C(=O)c3cnn4ccccc34)C(=O)OC12C (stereo not drawn) [10.45] | >64.00 µg/mL | <0.06 µg/mL | <0.06 µg/mL | <0.06 µg/mL | 1 µg/mL (≈ 1.19 µM) | – | – | – | – | – |
